{"source": "paper PMC10064984", "about": "“Anti-cyclooxygenase, anti-glycation, and anti-skin aging effect of Dendrobium officinale flowers’ aqueous extract and its phytochemical validation in aging” (Frontiers in Immunology, 2023)", "key": {"[1]": {"test": "DPPH· scavenging;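 on all read-outs here: colourimetric DPPH radical scavenging in 96-well plates, absorbance read-out, percent inhibition relative to ethanol control absorbance, IC50 derived graphically from dose-inhibition curves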", "assay_type": "biochemical", "conditions": "mean ± SD, n = 3"}, "[2]": {"test": "ABTS·+ decolourisation capacity", "assay_type": "biochemical", "conditions": "for ABTS scavenging rate: replicate wells, listed as T9", "in_short": "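IC50 values were derived graphically from dose-inhibition curves, with % inhibition calculated versus a buffer-only (0.2 M phosphate, pH 7.4) control. Each sample (200 μl) reacted for 10 min with 100 μl ABTS·+ reagent pre-set to A729 0.8 ± 0.05, then absorbance at 729 nm was measured in triplicate.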"}, "[3]": {"test": "FRAP total antioxidant capacity;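 on all read-outs here: colourimetric FRAP kit assay read as absorbance in 96-well plates, values as mM FeSO4 via standard curve, EC1 being sample concentration matching 1.0 mmol/L FeSO4, Trolox positive control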", "assay_type": "biochemical", "conditions": "lower part of sheet (compound series)"}, "[4]": {"target": "T1, COX-2 (Homo sapiens, UniProt P35354)", "T1 construct": "purchased Beyotime S0168", "T1 sequence (P35354 18-604)": "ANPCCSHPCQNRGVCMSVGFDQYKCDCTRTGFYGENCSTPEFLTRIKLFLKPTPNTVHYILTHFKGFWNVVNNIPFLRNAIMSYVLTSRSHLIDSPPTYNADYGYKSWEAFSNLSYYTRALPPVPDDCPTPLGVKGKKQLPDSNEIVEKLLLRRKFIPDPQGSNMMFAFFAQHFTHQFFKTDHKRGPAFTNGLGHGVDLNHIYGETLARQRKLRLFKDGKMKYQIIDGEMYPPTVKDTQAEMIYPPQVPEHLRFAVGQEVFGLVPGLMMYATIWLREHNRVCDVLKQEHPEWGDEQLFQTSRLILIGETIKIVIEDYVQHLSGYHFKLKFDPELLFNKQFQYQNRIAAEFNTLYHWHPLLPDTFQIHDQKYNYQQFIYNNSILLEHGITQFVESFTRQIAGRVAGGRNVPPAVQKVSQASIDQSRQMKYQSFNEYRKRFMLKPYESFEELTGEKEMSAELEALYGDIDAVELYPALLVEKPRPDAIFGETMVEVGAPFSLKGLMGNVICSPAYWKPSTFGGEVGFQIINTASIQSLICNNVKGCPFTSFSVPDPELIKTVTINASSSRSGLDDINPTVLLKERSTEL", "test": "Anti-COX-2 assay (COX-2 Inhibitor Screening Kit)", "assay_type": "biochemical"}, "[5]": {"test": "Fluorescent AGEs formation in a BSA-fructose/glucose system", "assay_type": "biochemical", "conditions": "for inhibition of fluorescent AGEs formation (BSA-抗糖化), single replicate: individual replicate; for inhibition of fluorescent AGEs formation (BSA-抗糖化), 平均 (mean): mean of 3 replicates", "in_short": "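Fluorescent AGE inhibition was measured in triplicate, correcting sample and control fluorescence for BSA-free blanks. Glycation used BSA incubated with D-fructose and D-glucose, with samples dissolved in DMSO:water (1:4).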"}, "[6]": {"test": "Online UPLC-PDA-MS-ABTS·+ scavenging (postcolumn derivatisation)", "conditions": "within DOF extract", "experimental": "Online identification of antioxidant components of DOF extract was performed using a UPLC system (Milford, MA, USA) consisting of a Waters photodiode array detector and a Waters postcolumn derivatisation system supplying fresh ABTS solution (UPLC-PDA-QDa-ABTS). […] The detection wavelengths were set at 280 and 734 nm, and the injection volume of the sample was 10 μl.\nTo detect radical scavengers, the UPLC system was coupled with a Waters pump, which supplied freshly prepared ABTS·+ solution into a reaction coil (15 m, 0.25 mm ID) with a flow rate of 0.2 ml/min at 37°C. Negative peaks were recorded based on a decrease of absorbance at 729 nm after the reaction of individual compounds with the ABTS·+ radical. For preliminary identification of compounds, a Waters Acquity QDa mass detector in negative ionisation mode was connected in series to PDA with the following parameters: electrospray ion source; cone voltage, 15 V; atomiser, N2; and scanning range, 100–800 m/z."}, "[7]": {"conditions": "15.625 µM, listed as T9, 15.625 µM"}, "[8]": {"conditions": "31.25 µM, listed as T9, 31.25 µM"}}, "note": "Several values for one entry are separate records, joined by “and”; a condition that tells them apart may be missing. Identical values can stand only once. Like-named read-outs stand apart in the source and are kept apart here."}
{"smiles": "O=c1c(OC2OC(CO)C(O)C(O)C2OC2OC(CO)C(O)C(O)C2O)c(-c2ccc(O)c(O)c2)oc2cc(O)cc(O)c12", "note": "(centres unmarked) [compound 16, Quercetin-3-O-sophoroside]", "values": [{"measurement": "IC50", "setting": "[1]", "result": "172 ± 76", "unit": "µM"}, {"measurement": "ABTS scavenging rate", "setting": "[2]; 0.1mM (second) series, concentration 1.5625 (unit not given)", "result": "15.90% and 14.14% and 8.19%"}, {"measurement": "ABTS scavenging rate", "setting": "[2]; 0.1mM (second) series, concentration 3.125 (unit not given)", "result": "24.15% and 23.67% and 20.29%"}, {"measurement": "ABTS scavenging rate", "setting": "[2]; 0.1mM (second) series, concentration 6.25 (unit not given)", "result": "44.10% and 44.05% and 40.43%"}, {"measurement": "ABTS scavenging rate", "setting": "[2]; 0.1mM (second) series, concentration 12.5 (unit not given)", "result": "74.66% and 75.28% and 72.52%"}, {"measurement": "ABTS scavenging rate", "setting": "[2]; 0.1mM (second) series, concentration 25 (unit not given)", "result": "99.29% and 99.51% and 99.54%"}, {"measurement": "ABTS scavenging rate", "setting": "[2]; 0.1mM (second) series, concentration 50 (unit not given)", "result": "99.16% and 99.11% and 99.25%"}, {"measurement": "ABTS scavenging rate", "setting": "[2]; 0.1mM (second) series, concentration 100 (unit not given)", "result": "98.65% and 98.51% (2×)"}, {"measurement": "ABTS scavenging rate", "setting": "[2]; 0.5mM series, concentration 7.8125 (unit not given)", "result": "63.17% and 62.77% and 62.93%"}, {"measurement": "ABTS scavenging rate", "setting": "[2]; 0.5mM series, concentration 15.625 (unit not given)", "result": "91.66% and 90.68% and 90.61%"}, {"measurement": "ABTS scavenging rate", "setting": "[2]; 0.5mM series, concentration 31.25 (unit not given)", "result": "99.28% and 99.41% and 99.37%"}, {"measurement": "ABTS scavenging rate", "setting": "[2]; 0.5mM series, concentration 62.5 (unit not given)", "result": "98.95% and 98.76% and 98.72%"}, {"measurement": "ABTS scavenging rate", "setting": "[2]; 0.5mM series, concentration 125 (unit not given)", "result": "98.61% and 98.31% and 98.43%"}, {"measurement": "ABTS scavenging rate", "setting": "[2]; 0.5mM series, concentration 500 (unit not given)", "result": "98.97% and 98.88% and 98.79%"}, {"measurement": "IC50", "setting": "[2]; mean ± SD, n = 3", "result": "6.63 ± 0.41", "unit": "µM"}, {"measurement": "FRAP EC1", "setting": "[3]", "result": "949.6 ± 41.9", "unit": "µM"}, {"measurement": "COX-2 inhibition (in words)", "setting": "[4]", "result": "great COX-2 inhibition"}, {"measurement": "inhibition at 3.125 µM", "setting": "[4]; 3.125 μM, single replicates", "result": 18.7, "unit": "%"}, {"measurement": "COX-2 inhibition", "setting": "[4]; 3.125 μM, single replicates, listed as T9, 3.125 µM", "result": "24.64% and 15.29%"}, {"measurement": "inhibition at 6.25 µM", "setting": "[4]; 6.25 μM, single replicates", "result": 29.8, "unit": "%"}, {"measurement": "COX-2 inhibition", "setting": "[4]; 6.25 μM, single replicates, listed as T9, 6.25 µM", "result": "26.80% and 27.13%"}, {"measurement": "inhibition at 12.5 µM", "setting": "[4]; 12.5 μM, single replicates", "result": 61.6, "unit": "%"}, {"measurement": "COX-2 inhibition", "setting": "[4]; 12.5 μM, single replicates, listed as T9, 12.5 µM", "result": "66.25% and 69.30%"}, {"measurement": "inhibition at 25 µM", "setting": "[4]; 25 μM, single replicates", "result": 73.7, "unit": "%"}, {"measurement": "COX-2 inhibition", "setting": "[4]; 25 μM, single replicates, listed as T9, 25 µM", "result": "76.43% and 76.52%"}, {"measurement": "inhibition at 50 µM", "setting": "[4]; 50 μM, single replicates", "result": 77.8, "unit": "%"}, {"measurement": "COX-2 inhibition", "setting": "[4]; 50 μM, single replicates, listed as T9, 50 µM", "result": "79.58% and 76.60%"}, {"measurement": "inhibition at 100 µM", "setting": "[4]; 100 μM, single replicates", "result": 79.3, "unit": "%"}, {"measurement": "COX-2 inhibition", "setting": "[4]; 100 μM, single replicates, listed as T9, 100 µM", "result": "79.42% and 83.93%"}, {"measurement": "inhibition at 200 µM", "setting": "[4]; 200 μM, single replicates", "result": 80.9, "unit": "%"}, {"measurement": "COX-2 inhibition", "setting": "[4]; 200 μM, single replicates, listed as T9, 200 µM", "result": "81.85% and 81.79%"}, {"measurement": "IC50", "setting": "[4]; mean ± SD, n = 3, nd, not detected, read-out: COX-2 IC50", "result": "11 ± 0.7", "unit": "µM"}, {"measurement": "IC50", "setting": "[4]; supplement sheet COX, read-out: COX-2 IC50, single replicate", "result": "11.7 µM and 10.4 µM and 10.9 µM"}, {"measurement": "inhibition of fluorescent AGEs formation (BSA-抗糖化), single replicate", "setting": "[5]; [7]", "result": "-5.89% and 1.09% and -2.67%"}, {"measurement": "inhibition of fluorescent AGEs formation (BSA-抗糖化), 平均 (mean)", "setting": "[5]; [7]", "result": -2.49, "unit": "%"}, {"measurement": "inhibition of fluorescent AGEs formation (BSA-抗糖化), single replicate", "setting": "[5]; [8]", "result": "4.38% and 4.16% and -1.45%"}, {"measurement": "inhibition of fluorescent AGEs formation (BSA-抗糖化), 平均 (mean)", "setting": "[5]; [8]", "result": 2.37, "unit": "%"}, {"measurement": "inhibition of fluorescent AGEs formation (BSA-抗糖化), single replicate", "setting": "[5]; 62.5 µM, listed as T9, 62.5 µM", "result": "13.91% and 12.77% and 15.77%"}, {"measurement": "inhibition of fluorescent AGEs formation (BSA-抗糖化), 平均 (mean)", "setting": "[5]; 62.5 µM, listed as T9, 62.5 µM", "result": 14.15, "unit": "%"}, {"measurement": "inhibition of fluorescent AGEs formation (BSA-抗糖化), single replicate", "setting": "[5]; 125 µM, listed as T9, 125 µM", "result": "29.89% and 32.42% and 28.07%"}, {"measurement": "inhibition of fluorescent AGEs formation (BSA-抗糖化), 平均 (mean)", "setting": "[5]; 125 µM, listed as T9, 125 µM", "result": 30.13, "unit": "%"}, {"measurement": "inhibition of fluorescent AGEs formation (BSA-抗糖化), single replicate", "setting": "[5]; 250 µM, listed as T9, 250 µM", "result": "44.67% and 46.80% and 48.36%"}, {"measurement": "inhibition of fluorescent AGEs formation (BSA-抗糖化), 平均 (mean)", "setting": "[5]; 250 µM, listed as T9, 250 µM", "result": 46.61, "unit": "%"}, {"measurement": "inhibition of fluorescent AGEs formation (BSA-抗糖化), single replicate", "setting": "[5]; 500 µM, listed as T9, 500 µM", "result": "63.53% and 64.37% and 63.12%"}, {"measurement": "inhibition of fluorescent AGEs formation (BSA-抗糖化), 平均 (mean)", "setting": "[5]; 500 µM, listed as T9, 500 µM", "result": 63.67, "unit": "%"}, {"measurement": "inhibition of fluorescent AGEs formation (BSA-抗糖化), single replicate", "setting": "[5]; 1000 µM, listed as T9, 1000 µM", "result": "79.44% and 79.91% and 79.18%"}, {"measurement": "inhibition of fluorescent AGEs formation (BSA-抗糖化), 平均 (mean)", "setting": "[5]; 1000 µM, listed as T9, 1000 µM", "result": 79.51, "unit": "%"}, {"measurement": "inhibition of fluorescent AGEs formation (BSA-抗糖化), single replicate", "setting": "[5]; 2000 µM, listed as T9, 2000 µM", "result": "88.85% and 89.28% and 89.06%"}, {"measurement": "inhibition of fluorescent AGEs formation (BSA-抗糖化), 平均 (mean)", "setting": "[5]; 2000 µM, listed as T9, 2000 µM", "result": 89.06, "unit": "%"}, {"measurement": "inhibition of fluorescent AGEs formation (BSA-抗糖化), single replicate", "setting": "[5]; 4000 µM (series head 'T9 4000µM', 2-fold dilutions), listed as T9", "result": "94.75% and 94.42% and 94.91%"}, {"measurement": "inhibition of fluorescent AGEs formation (BSA-抗糖化), 平均 (mean)", "setting": "[5]; 4000 µM, listed as T9, 4000 µM", "result": 94.69, "unit": "%"}, {"measurement": "IC50", "setting": "[5]; mean ± SD, n = 3, read-out: BSA-glycation IC50", "result": "296 ± 8.5", "unit": "µM"}, {"measurement": "online ABTS radical scavenging (size of negative peaks at 734 nm)", "setting": "[6]", "result": "strongest ABTS radical scavengers"}]}
